This note sets out measurements from US20240158446A1, “CYCLIC COMPOUND HAVING SELECTIVE INHIBITORY ACTION ON KRAS OVER HRAS AND NRAS” (CHUGAI SEIYAKU KABUSHIKI KAISHA, priority 2021, published 2024).

For assay [1], the target named is GDP-bound KRAS wild-type protein (Homo sapiens, UniProt P01116). As to the kind of experiment: Binding to KRAS by surface plasmon resonance (SPR), Single Cycle Kinetics. The conditions noted are these: SPR, Single Cycle Kinetics, GDP-bound KRAS wild-type protein; read-out: KRAS KD. (Surface plasmon resonance follows binding to a sensor surface in real time, without labels.)

For assay [2], the target named is GDP-bound HRAS wild-type protein (Homo sapiens, UniProt P01112). As to the kind of experiment: Binding to HRAS by surface plasmon resonance (SPR), Single Cycle Kinetics. The conditions noted are these: SPR, GDP-bound HRAS wild-type protein vs GDP-bound KRAS wild-type protein.
Assay [3] has as its target GDP-bound NRAS wild-type protein (Homo sapiens, UniProt P01111). Kind of assay: Binding to NRAS by surface plasmon resonance (SPR), Single Cycle Kinetics. The conditions noted are these: SPR, GDP-bound NRAS wild-type protein vs GDP-bound KRAS wild-type protein.

Sequence of GDP-bound KRAS wild-type protein (P01116 whole entry): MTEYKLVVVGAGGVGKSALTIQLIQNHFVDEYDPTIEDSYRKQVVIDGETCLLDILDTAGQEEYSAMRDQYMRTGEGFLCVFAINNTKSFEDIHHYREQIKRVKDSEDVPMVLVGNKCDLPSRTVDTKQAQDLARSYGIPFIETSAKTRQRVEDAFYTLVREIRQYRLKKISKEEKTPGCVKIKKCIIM
Sequence of GDP-bound HRAS wild-type protein (P01112 whole entry): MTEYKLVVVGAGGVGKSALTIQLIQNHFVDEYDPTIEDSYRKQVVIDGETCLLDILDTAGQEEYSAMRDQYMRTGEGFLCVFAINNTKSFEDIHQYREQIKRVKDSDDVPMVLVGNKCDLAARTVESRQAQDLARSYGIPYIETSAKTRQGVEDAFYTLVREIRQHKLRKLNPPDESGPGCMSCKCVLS
Sequence of GDP-bound NRAS wild-type protein (P01111 whole entry): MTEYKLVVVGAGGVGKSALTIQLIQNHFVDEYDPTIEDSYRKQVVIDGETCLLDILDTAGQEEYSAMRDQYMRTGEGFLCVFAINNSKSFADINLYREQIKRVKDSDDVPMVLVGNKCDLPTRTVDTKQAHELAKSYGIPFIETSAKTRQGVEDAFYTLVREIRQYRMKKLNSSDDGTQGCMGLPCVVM

For orientation: Kd means the concentration at which binding is half-saturated. For the compound `CC[C@H](C)[C@@H]1NC(=O)[C@H](C)N(C)C(=O)C[C@@H](C(=O)N(C)C)N(C)C(=O)[C@H](C2CCCC2)N(C)C(=O)C2(CCC2)NC(=O)[C@@H]2CC(F)(F)CN2C(=O)[C@H](CCc2cc(F)c(C(F)(F)F)c(F)c2)NC(=O)CN(C)C(=O)[C@H](Cc2ccc(C(F)(F)F)cc2)N2CC/C=C\C[C@@H](C2=O)N(C)C(=O)CN(C)C1=O` [PP1103, (2S,8S,14S,20S,23S,27S,30S,36S,38Z)-20-cyclopentyl-8-[2-[3,5-difluoro-4-(trifluoromethyl)phenyl]ethyl]-12,12-difluoro-N,N,4,19,22,26,27,32,35-nonamethyl-30-[(1S)-1-methylpropyl]-3,6,9,15,18,21,25,28,31,34,42-undecaoxo-2-[[4-(trifluoromethyl)phenyl]methyl]spiro[1,4,7,10,16,19,22,26,29,32,35-undecazatricyclo[34.5.1.0^10,14]dotetracont-38-ene-17,1′-cyclobutane]-23-carboxamide], the Kd in assay [1] was determined as 0.036 nM. Moreover, in assay [2], the “HRAS/KRAS (ratio of KD value for HRAS to KD value for KRAS)” value was “B (a compound having 3 or more and less than 10 is denoted as B)”. In addition, the “NRAS/KRAS (ratio of KD value for NRAS to KD value for KRAS)” value in assay [3] was “A (a compound having 10 or more and less than 20 is denoted as A)”.

In the case of `CCO[C@@H]1C[C@H]2C(=O)NC3(CCCC3)C(=O)N(C)[C@@H](C3CCCC3)C(=O)N(C)[C@H](C(=O)N(C)C)CC(=O)N(C)[C@@H](C)C(=O)N[C@@H]([C@@H](C)CC)C(=O)N(C)CC(=O)N(C)[C@H]3C/C=C\CCN(C3=O)[C@@H](Cc3ccc(C(F)(F)F)cc3)C(=O)N(C)CC(=O)N[C@@H](CCc3cc(F)c(C(F)(F)F)c(F)c3)C(=O)N2C1` [PP1104, (2S,8S,12R,14S,20S,23S,27S,30S,36S,38Z)-20-cyclopentyl-8-[2-[3,5-difluoro-4-(trifluoromethyl)phenyl]ethyl]-12-ethoxy-N,N,4,19,22,26,27,32,35-nonamethyl-30-[(1S)-1-methylpropyl]-3,6,9,15,18,21,25,28,31,34,42-undecaoxo-2-[[4-(trifluoromethyl)phenyl]methyl]spiro[1,4,7,10,16,19,22,26,29,32,35-undecazatricyclo[34.5.1.0^10,14]dotetracont-38-ene-17,1′-cyclopentane]-23-carboxamide], the Kd in assay [1] is 0.059 nM. In assay [2], the “HRAS/KRAS (ratio of KD value for HRAS to KD value for KRAS)” value is “A (a compound having 10 or more and less than 20 is denoted as A)”. In assay [3], the “NRAS/KRAS (ratio of KD value for NRAS to KD value for KRAS)” value is “A (a compound having 10 or more and less than 20 is denoted as A)”.

Turning to `CC[C@H](C)[C@@H]1NC(=O)[C@H](CC)N(C)C(=O)C[C@@H](C(=O)N(C)C)N(CC)C(=O)[C@H](C2CCCC2)N(C)C(=O)C2(CCC2)NC(=O)[C@@H]2CCCN2C(=O)[C@H](CCc2cc(F)c(C(F)(F)F)c(F)c2)NC(=O)CN(C)C(=O)[C@H](Cc2ccc(C(F)(F)F)cc2)N2CC/C=C\C[C@@H](C2=O)N(C)C(=O)CN(C)C1=O` [PP1106], in assay [1], the dissociation constant (Kd) was determined as 0.81 nM. For the same compound, in assay [2], the “HRAS/KRAS (ratio of KD value for HRAS to KD value for KRAS)” value was “A (a compound having 10 or more and less than 20 is denoted as A)”. Also, the “NRAS/KRAS (ratio of KD value for NRAS to KD value for KRAS)” value in assay [3] is “A (a compound having 10 or more and less than 20 is denoted as A)”.
